# Measurements from patent US11248234B2, “Herbicide-resistant hydroxyphenylpyruvate dioxygenases” (BASF SE, priority 2015, dated 2022).
# How the values were obtained:
# Experiment in all cases: Greenhouse spray test, injury evaluation
# Assay type in all cases: in vivo, Arabidopsis thaliana
# [1] = test system: transgenic Arabidopsis plants (T2) SoHPPD Q317H (short); conditions: 14 DAT
# Procedure: (§1) Non-transgenic control plants were treated in parallel and pictures taken 14 days after treatment.
# (§2) For post emergence treatment, the test plants are first grown to a height of 3 to 15 cm, depending on the plant habit, and only then treated with the herbicides. For this purpose, the test plants are either sown directly and grown in the same containers, or they are first grown separately and transplanted into the test containers a few days prior to treatment.
# (§3) Additionally, T1 and T2 transgenic Arabidopsis plants can be tested for improved tolerance to HPPD-inhibiting herbicides in greenhouse studies. Herbicide injury scoring is done 2-3 weeks after treatment and is rated on a scale of 0 to 100%, 0% being no injury and 100% being complete death.
# (§4) Transgenic T2 Arabidopsis plants were sprayed with a range of doses from 1.56-25 g/ha of different HPPD-inhibiting herbicides and injury evaluations were taken two weeks after treatment (FIG. 4). As depicted in Table 8, control plants were severely injured by all doses of herbicides applied, with at least 58% of leaf material being damaged at the lowest application rate and 100% leaf damage at the second application rate.
# [2] = test system: transgenic Arabidopsis plants (T2) SoHPPD F363I (short); conditions: for Injury: 14 DAT; for average damage: highest application rate, average of events
# Procedure: as §1, §2, §3, §4
# [3] = test system: transgenic Arabidopsis plants (T2) SoHPPD I419V (short); conditions: 14 DAT
# Procedure: as §1, §2, §3, §4
# [4] = test system: WT (non-transgenic control) Arabidopsis plants; conditions: 14 DAT
# Procedure: as §1, §2, §3, §4
structure (smiles),measurement,setting,value
"CSc1c(Cl)cc(F)c(C(=O)Nc2nnnn2C)c1Cl [Inhibitor 7, 2,4-dichloro-6-fluoro-3-methylsulfanyl-N-(1-methyltetrazol-5-yl)benzamide]",Injury,"[1]; Event B, 1.56 g ai/ha",0%
same,Injury,"[1]; Event B, 6.25 g ai/ha",18%
same,Injury,"[1]; Event B, 25 g ai/ha",78%
same,Injury,"[1]; Event C, 1.56 g ai/ha",0%
same,Injury,"[1]; Event C, 6.25 g ai/ha",8%
same,Injury,"[1]; Event C, 25 g ai/ha",73%
same,Injury,"[2]; Event B, 1.56 g ai/ha",0%
same,Injury,"[2]; Event B, 6.25 g ai/ha",5%
same,Injury,"[2]; Event B, 25 g ai/ha",0%
same,Injury,"[2]; Event C, 1.56 g ai/ha",0%
same,Injury,"[2]; Event C, 6.25 g ai/ha",0%
same,Injury,"[2]; Event C, 25 g ai/ha",0%
same,average damage,[2],no damage
same,Injury,"[3]; Event G, 1.56 g ai/ha",0%
same,Injury,"[3]; Event G, 6.25 g ai/ha",28%
same,Injury,"[3]; Event G, 25 g ai/ha",40%
same,Injury,"[3]; Event H, 1.56 g ai/ha",5%
same,Injury,"[3]; Event H, 6.25 g ai/ha",53%
same,Injury,"[3]; Event H, 25 g ai/ha",93%
same,Injury,[4]; 1.56 g ai/ha,88%
same,Injury,[4]; 6.25 g ai/ha,100%
same,Injury,[4]; 25 g ai/ha,100%
"CSc1c(C(F)(F)F)ccc(C(=O)Nc2nnnn2C)c1Cl [Inhibitor 11, 2-chloro-3-methylsulfanyl-N-(1-methyltetrazol-5-yl)-4-(trifluoromethyl)benzamide]",Injury,"[1]; Event B, 1.56 g ai/ha",40%
same,Injury,"[1]; Event B, 6.25 g ai/ha",99%
same,Injury,"[1]; Event B, 25 g ai/ha",100%
same,Injury,"[1]; Event C, 1.56 g ai/ha",15%
same,Injury,"[1]; Event C, 6.25 g ai/ha",79%
same,Injury,"[1]; Event C, 25 g ai/ha",100%
same,Injury,"[2]; Event B, 1.56 g ai/ha",0%
same,Injury,"[2]; Event B, 6.25 g ai/ha",0%
same,Injury,"[2]; Event B, 25 g ai/ha",15%
same,Injury,"[2]; Event C, 1.56 g ai/ha",8%
same,Injury,"[2]; Event C, 6.25 g ai/ha",0%
same,Injury,"[2]; Event C, 25 g ai/ha",5%
same,average damage,[2],10%
same,Injury,"[3]; Event G, 1.56 g ai/ha",58%
same,Injury,"[3]; Event G, 6.25 g ai/ha",83%
same,Injury,"[3]; Event G, 25 g ai/ha",100%
same,Injury,"[3]; Event H, 1.56 g ai/ha",43%
same,Injury,"[3]; Event H, 6.25 g ai/ha",100%
same,Injury,"[3]; Event H, 25 g ai/ha",100%
same,Injury,[4]; 1.56 g ai/ha,100%
same,Injury,[4]; 6.25 g ai/ha,100%
same,Injury,[4]; 25 g ai/ha,100%
